Like-named read-outs stand apart in the source and are kept apart here.
Assays:
Type in all cases: in vivo
[1] = system: velvetleaf (Abutilon theophrasti); test: Test C pre/postemergence; details: Abutilon theophrasti; for pest or weed control at 31 g/ha: 31 g ai/ha; for pest or weed control at 62 g/ha: 62 g ai/ha; for pest or weed control at 125 g/ha: 125 g ai/ha; for pest or weed control at 250 g/ha: 250 g ai/ha
From the text: (§1) Seeds or nutlets of plant species selected from bermudagrass (Cynodon dactylon), Surinam grass (Brachiaria decumbens), cocklebur (Xanthium strumarium), corn (Zea mays), crabgrass (Digitaria sanguinalis), woolly cupgrass (Eriochloa villosa), giant foxtail (Setaria faberii), goosegrass (Eleusine indica), johnsongrass (Sorghum halepense), kochia (Kochia scoparia), lambsquarters (Chenopodium album), morningglory (Ipomoea coccinea), eastern black nightshade (Solanum ptycanthum), yellow nutsedge (Cyperus esculentus), pigweed (Amaranthus retroflexus), common ragweed (Ambrosia elatior), soybean (Glycine max), common (oilseed) sunflower (Helianthus annuus), and velvetleaf (Abutilon theophrasti) were planted and treated preemergence with test chemicals formulated in a non-phytotoxic solvent mixture which included a surfactant.
(§2) At the same time, plants selected from these crop and weed species and also winter barley (Hordeum vulgare), blackgrass (Alopecurus myosuroides), canarygrass (Phalaris minor), chickweed (Stellaria media), downy brome (Bromus tectorum), green foxtail (Setaria viridis), Italian ryegrass (Lolium multiflorum), wheat (Triticum aestivum), wild oat (Avena fatua) and windgrass (Apera spica-venti) were treated with postemergence applications of some of the test chemicals formulated in the same manner. Plants ranged in height from 2 to 18 cm (1- to 4-leaf stage) for postemergence treatments. Plant species in the flooded paddy test consisted of rice (Oryza sativa), umbrella sedge (Cyperus difformis), duck salad (Heteranthera limosa) and barnyardgrass (Echinochloa crus-galli) grown to the 2-leaf stage for testing. Treated plants and controls were maintained in a greenhouse for 12 to 14 days, after which time all species were compared to controls and visually evaluated. Plant response ratings, summarized in Table C, are based on a scale of 0 to 100 where 0 is no effect and 100 is complete control. A dash (-) response means no test result.

[2] = system: lambsquarters (Chenopodium album); test: Test C pre/postemergence; details: Chenopodium album; for pest or weed control at 31 g/ha: 31 g ai/ha; for pest or weed control at 62 g/ha: 62 g ai/ha; for pest or weed control at 125 g/ha: 125 g ai/ha; for pest or weed control at 250 g/ha: 250 g ai/ha
From the text: as §1, §2

[3] = system: giant foxtail (Setaria faberii); test: Test C pre/postemergence; details: Setaria faberi; for pest or weed control at 125 g/ha: 125 g ai/ha; for pest or weed control at 31 g/ha: 31 g ai/ha; for pest or weed control at 62 g/ha: 62 g ai/ha; for pest or weed control at 250 g/ha: 250 g ai/ha
From the text: as §1, §2

[4] = system: goosegrass (Eleusine indica); test: Test C pre/postemergence; details: Eleusine indica; for pest or weed control at 31 g/ha: 31 g ai/ha; for pest or weed control at 62 g/ha: 62 g ai/ha; for pest or weed control at 125 g/ha: 125 g ai/ha; for pest or weed control at 250 g/ha: 250 g ai/ha
From the text: as §1, §2

[5] = system: chickweed (Stellaria media); test: Test C postemergence; details: Stellaria media, post-emergence
From the text: as §1, §2

[6] = post-emergence, Postemergence, scale 0 to 100 (0 no effect, 100 complete control), read-out: Velvetleaf plant response rating
[7] = pre-emergence, Preemergence, scale 0 to 100, 0 no effect, 100 complete control, read-out: Plant response rating, Velvetleaf
[8] = pre-emergence, Preemergence, scale 0 to 100, read-out: Plant response rating, Velvetleaf
[9] = post-emergence, Postemergence, scale 0 to 100 (0 no effect, 100 complete control), read-out: Lambsquarters plant response rating
[10] = pre-emergence, Preemergence, scale 0 to 100, 0 no effect, 100 complete control, read-out: Plant response rating, Lambsquarters
[11] = pre-emergence, Preemergence, scale 0 to 100, read-out: Plant response rating, Lambsquarters
[12] = post-emergence, Postemergence, scale 0 to 100 (0 no effect, 100 complete control), read-out: Foxtail, Giant plant response rating
[13] = pre-emergence, Preemergence, scale 0 to 100, 0 no effect, 100 complete control, read-out: Plant response rating, Foxtail, Giant
[14] = pre-emergence, Preemergence, scale 0 to 100, read-out: Plant response rating, Foxtail, Giant
[15] = post-emergence, Postemergence, scale 0 to 100 (0 no effect, 100 complete control), read-out: Goosegrass plant response rating
[16] = pre-emergence, Preemergence, scale 0 to 100, 0 no effect, 100 complete control, read-out: Plant response rating, Goosegrass
[17] = pre-emergence, Preemergence, scale 0 to 100, read-out: Plant response rating, Goosegrass

Question: With `COC(=O)c1nc(C2CC2)nc(N)c1Br` [Compound 2, methyl 6-amino-5-bromo-2-cyclopropyl-4-pyrimidinecarboxylate] as the molecule, how does the pest or weed control at 31 g/ha ([1]; post-emergence, Postemergence, read-out: Plant response rating (scale of 0 to 100), Velvetleaf) read?
Answer: 65%

Question: What about the pest or weed control at 62 g/ha [1, 6] of the same molecule?
Answer: 70%

Question: What about the pest or weed control at 125 g/ha [1, 6] of the same molecule?
Answer: 80%

Question: What about the pest or weed control at 250 g/ha ([1]; post-emergence, Postemergence, scale 0 to 100, read-out: Plant response rating, Velvetleaf) of the same molecule?
Answer: 100%

Question: What about the pest or weed control at 31 g/ha [1, 7] of the same molecule?
Answer: 20%

Question: And the pest or weed control at 62 g/ha [1, 7]?
Answer: 50%

Question: And the pest or weed control at 125 g/ha [1, 8]?
Answer: 75%

Question: And the pest or weed control at 250 g/ha [1, 8]?
Answer: 90%

Question: What about the pest or weed control at 31 g/ha ([2]; post-emergence, Postemergence, read-out: Plant response rating (scale of 0 to 100), Lambsquarters) of the same molecule?
Answer: 100%

Question: And the pest or weed control at 62 g/ha [2, 9]?
Answer: 100%

Question: What about the pest or weed control at 125 g/ha [2, 9] of the same molecule?
Answer: 100%

Question: And the pest or weed control at 250 g/ha ([2]; post-emergence, Postemergence, scale 0 to 100, read-out: Plant response rating, Lambsquarters)?
Answer: 100%

Question: And the pest or weed control at 31 g/ha [2, 10]?
Answer: 90%

Question: What about the pest or weed control at 62 g/ha [2, 10] of the same molecule?
Answer: 100%

Question: And the pest or weed control at 125 g/ha [2, 11]?
Answer: 100%

Question: And the pest or weed control at 250 g/ha [2, 11]?
Answer: 100%

Question: What about the pest or weed control at 125 g/ha [3, 12] of the same molecule?
Answer: 65%

Question: And the pest or weed control at 31 g/ha ([3]; post-emergence, Postemergence, read-out: Plant response rating (scale of 0 to 100), Foxtail, Giant)?
Answer: 0%

Question: What about the pest or weed control at 62 g/ha [3, 12] of the same molecule?
Answer: 35%

Question: And the pest or weed control at 250 g/ha ([3]; post-emergence, Postemergence, scale 0 to 100, read-out: Plant response rating, Foxtail, Giant)?
Answer: 70%

Question: And the pest or weed control at 31 g/ha [3, 13]?
Answer: 0%

Question: What about the pest or weed control at 62 g/ha [3, 13] of the same molecule?
Answer: 0%

Question: And the pest or weed control at 125 g/ha [3, 14]?
Answer: 0%

Question: What about the pest or weed control at 250 g/ha [3, 14] of the same molecule?
Answer: 30%

Question: What about the pest or weed control at 31 g/ha ([4]; post-emergence, Postemergence, read-out: Plant response rating (scale of 0 to 100), Goosegrass) of the same molecule?
Answer: 0%

Question: And the pest or weed control at 62 g/ha [4, 15]?
Answer: 0%

Question: What about the pest or weed control at 125 g/ha [4, 15] of the same molecule?
Answer: 0%

Question: And the pest or weed control at 250 g/ha ([4]; post-emergence, Postemergence, scale 0 to 100, read-out: Plant response rating, Goosegrass)?
Answer: 45%

Question: What about the pest or weed control at 31 g/ha [4, 16] of the same molecule?
Answer: 0%

Question: What about the pest or weed control at 62 g/ha [4, 16] of the same molecule?
Answer: 0%

Question: And the pest or weed control at 125 g/ha [4, 17]?
Answer: 0%

Question: And the pest or weed control at 250 g/ha [4, 17]?
Answer: 60%

Question: And the pest or weed control at 31 g/ha ([5]; 31 g ai/ha, read-out: Plant response rating (scale of 0 to 100), Chickweed)?
Answer: 60%

Question: What about the pest or weed control at 62 g/ha ([5]; 62 g ai/ha, scale 0 to 100 (0 no effect, 100 complete control), read-out: Chickweed plant response rating) of the same molecule?
Answer: 65%

Question: What about the pest or weed control at 125 g/ha ([5]; 125 g ai/ha, scale 0 to 100, read-out: Plant response rating, Chickweed) of the same molecule?
Answer: 75%

Question: What about the pest or weed control at 250 g/ha ([5]; 250 g ai/ha, scale 0 to 100, read-out: Plant response rating, Chickweed) of the same molecule?
Answer: 95%
